The values that follow come from ChEMBL document CHEMBL1141258, “Prismatomerin, a new iridoid from Prismatomeris tetrandra. Structure elucidation, determination of absolute configuration, and cytotoxicity” (J Nat Prod, 2007).

SMILES strings stand for the structures. Converted amounts (≈) assume the structure as drawn.

The nature of series [1]: Toxicity in brine shrimp after 48 hrs. In kind it is organism-based. The following applies: artemia, in vivo; read-out: LD50.
Series [2] is described as follows: Toxicity in brine shrimp after 24 hrs. In kind it is organism-based. As to conditions: artemia, in vivo; read-out: LD50.
The nature of series [3]: Antiproliferative activity against human KB31 cells after 5 days by MTT assay. As to conditions: KB 3-1, 120 h.
The subject of series [4] is SW480. The series can be described thus: Antiproliferative activity against human SW480 cells after 5 days by MTT assay. As to conditions: SW480, 120 h.
Series [5] deals with A549. As to the kind of experiment: Antiproliferative activity against human A549 cells after 5 days by MTT assay. The following applies: A549, 120 h.
The subject of series [6] is L929. The series can be described thus: Antiproliferative activity against mouse L929 cells after 5 days by SRB assay. In kind it is cell-based. As to conditions: L929, 120 h.

For `COC(=O)C1=CO[C@H](O[C@@H]2O[C@H](CO)[C@@H](O)[C@H](O)[C@H]2O)[C@H]2[C@@H]1C=C[C@@]21C=C(C(O)c2ccc(O)cc2)C(=O)O1` (stereo partly specified) [GAERTNEROSIDE], in series [1], the LC50 at 48 h was found to be 0.224 µM. Moreover, the LC50 at 24 h in series [2] amounted to 0.38 mg/L (≈ 0.693 µM).
For the molecule `COC(=O)C1=CO[C@@H]2O[C@H]3/C(=C\c4ccc(OC(C)=O)cc4)C(=O)O[C@]34C=C[C@H]1[C@H]24`, the concentration for half-maximal inhibition (IC50) came out at 0.35 µM in series [3], 0.084 µM in series [4], 1.6 µM in series [5] and 0.41 µM in series [6].
